Patent publication EP0324328B1, “Use of the N-n-butyl derivative of desoxynojirimycin in the manufacture of a medicament inhibiting HIV-Virus” (priority 1987, dated 1989)
Read-outs that look alike come from different tables or passages of the source.

Experiments:
HIV [1] = settings: result in words; see Fleet et al., FEBS Lett., In Press, 1988; cited from earlier work
HIV [2] = assay: TCID titre of culture supernatants of T-45 cells infected with HIV, Fig. 4; type: cell-based; settings: for reduction of TCID titre of culture supernatants: T-45 cells infected with HIV, after 10 days in culture, result in words
Procedure: FIG. 4 is a graphical representation in which the viral titer (determined as TCID) is plotted against the concentration in mg/ml of various of the test compounds (drugs) of FIG. 3 in panels (a) and (b).
(§1) Cell free suspensions of the HIV were prepared from infected cultures. The concentration of infectious particles was estimated on end-point titration assay using serial ten-fold dilutions. The approximate number of infectious particles in each preparation was determined by the highest dilution which contains infectious HIV as determined by synctial formation, cytopathicity [Leonard et al., Proc. Natl. Acad. Sci. USA 85, 3570-3574 (1988); Barre-Sinoussi et al., Science 220, 868-870 (1983)] and HIV antigen [Karpas et al., Lancet 1, 695-697 (1985)] synthesis after 10 days of culture with 10^4 T-cells. This represents the concentration of infectious particles, herein defined as the tissue culture infectious dose (TCID).
(§2) The efficacy of the test compounds used in this example was assessed as follows: 0.2 ml of culture medium containing 10^4 T-45 cells were transferred into each well of a 96-well flat-bottomed tissue-culture plastic plate and the cells were allowed to settle at 37°C (see Figure 1). After 4 hours the media were aspirated and replaced with media which contained the test compound. Following overnight incubation the media was aspirated and 10^4 TCID of virus (HIV-1 or HIV-2) was added to each well. Incubation was continued at 37°C in 5% CO2 for 1 hour. Thereafter, growth media containing the various compounds were added and incubation at 37°C was continued. On the fourth day the cell suspensions from each well were split and seeded into two new wells and 0.2 ml of fresh media with compounds was added. This was repeated on the seventh day. Cells were examined by microscopy during days 1 to 10 for the presence of syncytia, growth rate and the appearance of the cytopathic effect (CPE) (giant cells, pycnotic nuclei, loss of refractility). CPE (100%) was defined as no round, refractile, uniform cells remaining; only giant, ballooned pyknotic cells were present. The viability of HIV infected cultures was determined by a rough count/estimate of cells which underwent CPE in relation to round refractile uniform (normal) cells in a given culture. Cells in wells which were incubated with compounds which appeared to inhibit or reduce HIV replication and in which there was marked cell proliferation were either transferred to larger wells (of a 24-well plate) or divided in order to maintain an approximate constant cell density to promote continuous cell division.
Quantitative data on the effect of the various compounds on the non-infected cells (cytotoxicity) was obtained by comparison of their growth rate to control cells not exposed to drugs (Table 1). Fig. 4 and Table 2 show the relation between the TCID titre of culture supernatants of T-45 cells infected with HIV after 10 days in culture and the concentration of drug. […] The inability of any of these drugs alone to totally reduce the TCID may be due to heterogeneity of virus production or spread. […] In addition, the MOLT-4 cell line was also used.

HIV [3] = assay: Inhibition of HIV-associated cytopathic effect (CPE) in T-45 cells; type: cell-based; settings: HIV infected T-45 cells, various concentrations (Fig. 3); result in words
Procedure: FIG. 3 is a graphical representation in which the inhibition of HIV associated CPE (―% CPE) reduction) and test compound-associated cytotoxicity (---% cell death) is plotted against the media concentration in mg/ml of several test compounds (drugs). The cell viability data was determined for non-HIV infected cells. The test compounds were the N-methyl-, N-ethyl-, and N-butyl derivatives of deoxynojirimycin (DNJ), castanospermine (Cast), N-(5-carboxymethyl-1-pentyl)-1,5-imino-L-fucitol (LFT) and 1,4-dideoxy-1,4-imino-L-arabinitol (LAB).
After a suitable period of incubation, the cultures are scored for the presence of so-called syncytial cells (giant cells). Typical examples of such a test for the evaluation of inhibitors of HIV have been disclosed by Fung et al., Bio/Technology 5, 940-946 (1987); Tyms et al., Lancet, October 31, 1987, pp. 1025-1026; Gruters et al., Nature 330, 74-77 (1987); and Walker et al., Proc. Natl. Acad. Sci. USA 84, 8120-8124 (1987).
as §2

T-45 cells = type: cell-based, human; settings: for Estimated Cell Growth Virus-uninfected Day 7: no-drug control 1.2x10^6; for cytotoxicity: non-infected cells, over the concentration range used (Fig. 3, Table 1), result in words
Procedure: FIG. 1 is a schematic outline of the test procedure used to assess the cytotoxic effect of test compounds on T-cells either infected or non-infected with HIV and in parallel the HIV inhibitory activity of the test compounds. TCID is the tissue culture infectious dose. Cells were cultured in RPMI-1640 medium with 10% fetal calf serum containing 100 units/ml penicillin G and 100 µg/ml streptomycin.
(§3) The assay was run in 96 well plastic microtiter plates in which 0.2 ml of culture medium containing 10^4 T-cells are seeded into each well. RPMI-1640 supplemented with 10% fetal calf serum was used as the culture medium. In each assay, 6 wells are used. Three (1-3) are infected with 10^4 TCID/well of HIV-1 or HIV-2 and to the other three (4-6) culture medium alone is added. Medium is changed at the same intervals for each test compound. The detailed assay procedure is illustrated in Figures 1 and 2.
as §2, with “culture.” for “culture. Cells in wells which were incubated with compounds which appeared to inhibit or reduce HIV replication and in which there was marked cell proliferation were either transferred to larger wells (of a 24-well plate) or divided in order to maintain an approximate constant cell density to promote continuous cell division.”
Quantitative data on the effect of the various compounds on the non-infected cells (cytotoxicity) was obtained by comparison of their growth rate to control cells not exposed to drugs (Table 1). […] In addition, the MOLT-4 cell line was also used.

HIV-1 = assay: Virus titer (TCID) of HIV-1 infected T-cell cultures grown with test compound; type: cell-based; settings: control 10^6; for HIV-1 (TCID): Table 2, 0.10 mg/ml, 10^4 T-45 or MOLT-4 cells (identical results), 10^4 TCID inoculum, after day 10; for VIRUS TITER HIV-1: Table 3, Example 2, 0.1 mg/ml, T-45 and MOLT-4 cells, 10^4 TCID on 10^4 cells
Procedure: as §1, §3, §2
(§4) That is, HIV-1 was first passaged in T-45 cells; likewise, HIV-1 was first passaged in MOLT-4 cells. The same passaging was done with HIV-2. The test compounds were used at a concentration of 0.1 mg/ml. 10^4 TCID of HIV-1 and separately of HIV-2 were used to infect 10^4 cells. Upon completion of the test, the virus titers were as follows: TABLE 3

HIV-2 = assay: Virus titer (TCID) of HIV-2 infected T-cell cultures grown with test compound; type: cell-based; settings: control 10^6; for HIV-2 (TCID): Table 2, 0.10 mg/ml, 10^4 T-45 or MOLT-4 cells (identical results), 10^4 TCID inoculum, after day 10; for VIRUS TITER HIV-2: Table 3, Example 2, 0.1 mg/ml, T-45 and MOLT-4 cells, 10^4 TCID on 10^4 cells
Procedure: as §1, §3, §2, §4

HIV [4] = settings: cited from earlier work; for effect upon HIV infectivity: Gruters et al., Nature 330, 74-77 (1987)
[5] = tested on: B16-F10 murine melanoma cells; assay: Incorporation of radiolabeled galactose, mannose, glucose and thymidine into cells; type: cell-based; settings: result in words

For `OC[C@H]1NC[C@@H](O)[C@@H]1O` [D-enantiomer of 1,4-dideoxy-1,4-imino-arabinitol, 1,4-dideoxy-1,4-imino-arabinitol], the “HIV inhibitory activity / effect on CPE” value (HIV [1]) is given as “very little effect on HIV replication”.
With `CCN1C[C@H](O)[C@@H](O)[C@H](O)[C@H]1CO` [EtDNJ, N-ethyl-deoxynojirimycin] the “reduction of TCID titre of culture supernatants” value (HIV [2]) was “reduced the TCID only partially”, the “reduction of the virus titer / yield of infectious HIV” value (HIV [2]; at non-cytotoxic concentrations) was “two to four log-order of reduction” and the “effect on CPE formation” value (HIV [3]) was “bell shaped dose-dependence”. The “Estimated Cell Growth Virus-uninfected Day 7” value (T-45 cells; Dosage 0.01 mg/ml) was 1.2x10^6, the “Estimated Cell Growth Virus-uninfected Day 7” value (T-45 cells; Dosage 0.05 mg/ml) was 1.2x10^6 and the “Estimated Cell Growth Virus-uninfected Day 7” value (T-45 cells; Dosage 0.10 mg/ml) was 1.3x10^6. The cytotoxicity (T-45 cells) was “cytotoxic”, the “HIV-1 (TCID)” value (HIV-1) was 10^3 TCID and the “VIRUS TITER HIV-1” value (HIV-1) was 10^3. For the same molecule, the “HIV-2 (TCID)” value (HIV-2) was 10^3 TCID and the “VIRUS TITER HIV-2” value (HIV-2) was 10^3.
In the case of `OC[C@@H]1[C@@H](O)[C@H](O)[C@@H](O)CN1Cc1ccccc1` [N-benzyl derivative], the “HIV inhibitory activity / effect on CPE” value (HIV [1]) is listed as “Neither the azofuranose analog of glucose nor the N-benzyl derivative were found to have an effect on CPE”.
With `OC[C@@H]1NC[C@H](O)[C@H]1O` [LAB, 1,4-dideoxy-1,4-imino-L-arabinitol] the “reduction of TCID titre of culture supernatants” value (HIV [2]) was “only able to reduce the TCID partially”, the “Estimated Cell Growth Virus-uninfected Day 7” value (T-45 cells; Dosage 0.10 mg/ml) was 1.5x10^6 and the “Estimated Cell Growth Virus-uninfected Day 7” value (T-45 cells; Dosage 0.25 mg/ml) was 1.5x10^6. The “Estimated Cell Growth Virus-uninfected Day 7” value (T-45 cells; Dosage 0.50 mg/ml) was 1.0x10^6, the cytotoxicity (T-45 cells) was “showed no cytotoxicity over the concentration range used” and the “HIV inhibitory activity / effect on CPE” value (HIV [1]) was “strong HIV inhibitory activity”.
For `OC[C@H]1NCC[C@@H](O)[C@@H]1O` [fagomine], the “HIV inhibitory activity / effect on CPE” value (HIV [1]) is listed as “no HIV inhibition was observed”.
For `OC[C@H]1NC[C@H](O)[C@@H](O)[C@@H]1O` [DNJ, 1,5-dideoxy-1,5-imino-D-glucitol], the “reduction of TCID titre of culture supernatants” value (HIV [2]) is listed as “reduced the TCID only partially”, the “effect upon HIV infectivity” value (HIV [4]) is listed as “positive effect” and the “Estimated Cell Growth Virus-uninfected Day 7” value (T-45 cells; Dosage 0.25 mg/ml) is listed as 1.4x10^6. For the same molecule, the “Estimated Cell Growth Virus-uninfected Day 7” value (T-45 cells; Dosage 0.50 mg/ml) was 1.4x10^6, the “HIV-1 (TCID)” value (HIV-1) was 10^5 TCID and the “VIRUS TITER HIV-1” value (HIV-1) was 10^5. The “galactose incorporation into the cells” value ([5]; radiolabeled galactose) was “substantially inhibited galactose incorporation into the cells at 1.0 mM or less”, the glucose utilization/inhibition ([5]; radiolabeled glucose) was “inhibited in a normal dose-response manner” and the mannose utilization ([5]; radiolabeled mannose) was “inhibited mannose utilization”. The “^3H-Thymidine uptake into the cells” value [5] was “inhibited incorporation at 2.0 mM”, the “HIV-2 (TCID)” value (HIV-2) was 10^5 TCID and the “VIRUS TITER HIV-2” value (HIV-2) was 10^5.
For `OC[C@H]1NC[C@@H](O)[C@@H](O)[C@@H]1O` [DMJ, deoxymannojirimycin], the “effect upon HIV infectivity” value (HIV [4]) is given as “absence of effect”.
In the case of `O[C@@H]1[C@@H](O)[C@@H](O)CN2CC[C@H](O)[C@@H]12` [L-1,6-diepicastanospermine], the “HIV inhibitory activity / effect on CPE” value (HIV [1]) is listed as “neither the epimer L-1,6-diepicastanospermine nor the stereoisomer of castanospermine, L-6-epicastanospermine, were found to be inhibitory”.
For `O[C@H]1[C@H](O)[C@@H](O)CN2CC[C@H](O)[C@H]12` [Cast, castanospermine], the “reduction in virion infectivity” value (HIV [4]; background literature, b4) is listed as “only a modest reduction in virion infectivity”, the “effect on CPE formation” value (HIV [3]) is listed as “bell shaped dose-dependence” and the “Estimated Cell Growth Virus-uninfected Day 7” value (T-45 cells; Dosage 0.02 mg/ml) is listed as 1.2x10^6. The “Estimated Cell Growth Virus-uninfected Day 7” value (T-45 cells; Dosage 0.09 mg/ml) was 1.0x10^6, the “Estimated Cell Growth Virus-uninfected Day 7” value (T-45 cells; Dosage 0.18 mg/ml) was 8.0x10^5 and the “Estimated Cell Growth Virus-uninfected Day 7” value (T-45 cells; Dosage 0.35 mg/ml) was 8.0x10^5. For the same molecule, the “Estimated Cell Growth Virus-uninfected Day 7” value (T-45 cells; Dosage 0.70 mg/ml) was “Toxic”, the cytotoxicity (T-45 cells) was “cytotoxic” and the “HIV inhibitory activity / effect on CPE” value (HIV [1]) was “inhibition of the cytopathic effect (CPE) by the α-glucosidase I inhibitor castanospermine is confirmed”.
For `O[C@@H]1[C@@H](O)[C@@H](O)CN2CC[C@@H](O)[C@@H]12` [L-6-epicastanospermine], the “HIV inhibitory activity / effect on CPE” value (HIV [1]) is listed as “neither the epimer L-1,6-diepicastanospermine nor the stereoisomer of castanospermine, L-6-epicastanospermine, were found to be inhibitory”.
With “N-(5-carboxymethyl-1-pentyl)-1,5-imino-L-fucitol [LFT]” the “reduction of TCID titre of culture supernatants” value (HIV [2]) was “only able to reduce the TCID partially”.
